SMILES strings stand for the structures.

Assay [1] deals with Ribosomal protein S6 kinase alpha-3 (Homo sapiens, UniProt P51812). Kind of assay: Selectivity interaction (Kinase panel (Z-LYTE Assay)) EUB0001632a RPS6KA3. As to conditions: at 10 µM.
The target of assay [2] is 5'-AMP-activated protein kinase catalytic subunit alpha-2 (Homo sapiens) (UniProt P54646). The assay can be described thus: Selectivity interaction (KinomeScan (DiscoverX)) EUB0001619a PRKAA2. The note with it: at 1 µM.
The target in assay [3] is Serine/threonine-protein kinase WNK3 (Homo sapiens) (UniProt Q9BYP7). The assay can be described thus: Selectivity interaction (ActivX KiNativ screen (ex vivo kinase selectivity in human PBMCs)) EUB0001619a WNK3. Format: cell-based. As to conditions: PBMC, at 1 µM.
Assay [4] deals with T1, Ephrin type-A receptor 3 (Homo sapiens) (UniProt P29320).
T1 sequence (whole entry): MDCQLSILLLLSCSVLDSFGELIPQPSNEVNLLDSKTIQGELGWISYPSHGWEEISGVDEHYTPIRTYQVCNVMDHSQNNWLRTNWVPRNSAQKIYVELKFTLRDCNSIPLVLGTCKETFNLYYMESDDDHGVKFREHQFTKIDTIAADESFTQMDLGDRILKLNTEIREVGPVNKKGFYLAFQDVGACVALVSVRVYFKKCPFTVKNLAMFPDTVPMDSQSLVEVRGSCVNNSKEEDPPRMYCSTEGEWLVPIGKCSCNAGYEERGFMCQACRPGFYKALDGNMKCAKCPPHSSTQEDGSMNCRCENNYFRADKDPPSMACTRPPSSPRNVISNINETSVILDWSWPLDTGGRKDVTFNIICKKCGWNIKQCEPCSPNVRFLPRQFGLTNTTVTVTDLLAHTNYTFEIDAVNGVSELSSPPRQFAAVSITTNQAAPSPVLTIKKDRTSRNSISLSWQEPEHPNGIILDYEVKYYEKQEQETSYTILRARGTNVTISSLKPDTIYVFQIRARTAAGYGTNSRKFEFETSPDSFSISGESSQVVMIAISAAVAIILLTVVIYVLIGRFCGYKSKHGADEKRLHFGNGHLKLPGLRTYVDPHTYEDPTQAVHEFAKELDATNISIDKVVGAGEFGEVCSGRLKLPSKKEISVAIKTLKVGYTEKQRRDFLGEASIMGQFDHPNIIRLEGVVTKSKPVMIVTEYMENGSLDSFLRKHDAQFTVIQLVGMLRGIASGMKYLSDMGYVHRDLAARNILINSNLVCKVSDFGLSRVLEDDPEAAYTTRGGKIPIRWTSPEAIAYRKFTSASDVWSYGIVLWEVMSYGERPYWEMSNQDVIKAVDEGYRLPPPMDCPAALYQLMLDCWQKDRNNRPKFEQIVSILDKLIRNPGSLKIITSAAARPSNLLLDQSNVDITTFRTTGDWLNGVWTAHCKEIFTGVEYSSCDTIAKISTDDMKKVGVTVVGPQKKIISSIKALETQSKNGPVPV
The assay can be described thus: Selectivity interaction (KinomeScan (DiscoverX)) EUB0000666a EPHA3. The note with it: at 10 µM.

Assay [5] concerns the target Tyrosine-protein kinase BTK (Homo sapiens, UniProt Q06187). Kind of assay: Selectivity interaction (KinomeScan (DiscoverX)) EUB0000607a BTK. The note with it: at 10 µM.
In assay [6] the target is T2, Cyclin-dependent kinase-like 2 (Homo sapiens) (UniProt Q92772).
T2 sequence (whole entry): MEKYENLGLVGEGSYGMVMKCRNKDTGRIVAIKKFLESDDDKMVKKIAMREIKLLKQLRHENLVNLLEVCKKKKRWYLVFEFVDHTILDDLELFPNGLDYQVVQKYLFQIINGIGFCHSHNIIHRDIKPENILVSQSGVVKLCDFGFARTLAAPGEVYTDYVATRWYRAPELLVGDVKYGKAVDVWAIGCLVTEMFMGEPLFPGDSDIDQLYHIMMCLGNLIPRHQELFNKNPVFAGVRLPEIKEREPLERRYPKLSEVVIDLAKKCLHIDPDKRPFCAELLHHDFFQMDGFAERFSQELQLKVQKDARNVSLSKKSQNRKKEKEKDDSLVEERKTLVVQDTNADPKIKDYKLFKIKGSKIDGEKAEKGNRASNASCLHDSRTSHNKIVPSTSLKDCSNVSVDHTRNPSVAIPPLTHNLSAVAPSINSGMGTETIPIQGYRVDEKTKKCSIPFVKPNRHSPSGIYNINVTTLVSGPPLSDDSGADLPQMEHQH
The note with it: at 10 µM.

Assay [7] addresses T3, Mitogen-activated protein kinase kinase kinase 3 (Homo sapiens) (UniProt Q99759).
T3 sequence (whole entry): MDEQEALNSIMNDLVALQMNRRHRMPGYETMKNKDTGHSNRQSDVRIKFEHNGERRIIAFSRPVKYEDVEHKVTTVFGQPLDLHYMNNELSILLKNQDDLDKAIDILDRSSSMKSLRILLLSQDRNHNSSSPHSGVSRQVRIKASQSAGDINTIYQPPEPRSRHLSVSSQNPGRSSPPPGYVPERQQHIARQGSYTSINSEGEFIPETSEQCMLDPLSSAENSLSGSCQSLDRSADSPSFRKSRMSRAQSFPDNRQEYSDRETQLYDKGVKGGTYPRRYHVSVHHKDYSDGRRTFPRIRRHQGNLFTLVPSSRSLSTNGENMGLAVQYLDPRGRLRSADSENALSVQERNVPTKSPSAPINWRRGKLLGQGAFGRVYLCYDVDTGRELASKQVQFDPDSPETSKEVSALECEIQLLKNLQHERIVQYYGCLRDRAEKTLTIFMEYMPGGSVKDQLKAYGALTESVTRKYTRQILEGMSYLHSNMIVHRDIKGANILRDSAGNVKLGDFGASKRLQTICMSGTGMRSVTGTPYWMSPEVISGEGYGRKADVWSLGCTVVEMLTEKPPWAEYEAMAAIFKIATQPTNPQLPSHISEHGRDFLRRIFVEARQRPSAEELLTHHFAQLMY
Kind of assay: Selectivity interaction (ActivX KiNativ screen (kinase selectivity in THP-1 cell lysates)) EUB0000639a MAP3K3. The class given is subcellular. The note with it: lysate, at 1 µM.

The target of assay [8] is Tyrosine-protein kinase ABL1 (Homo sapiens, UniProt P00519). Kind of assay: Selectivity interaction (Kinase panel (Invitrogen)) EUB0000639a ABL1. As to conditions: at 200 nM.
Assay [9] in a line: Selectivity interaction (ActivX KiNativ screen (kinase selectivity in THP-1 cell lysates)) EUB0000639a STLK6. As to conditions: Selectivity number of off-targets 0; Selectivity number of targets 283; Source Knowledge https://pubmed.ncbi.nlm.nih.gov/28498658/; at 0.04 µM.
In assay [10] the target is Dual specificity tyrosine-phosphorylation-regulated kinase 1B (Homo sapiens, UniProt Q9Y463). The assay can be described thus: Selectivity interaction (KinomeScan (DiscoverX)) EUB0000045b DYRK1B.
Assay [11] concerns the target Epithelial discoidin domain-containing receptor 1 (Homo sapiens) (UniProt Q08345). Kind of assay: Selectivity interaction (KinomeScan (DiscoverX)) EUB0000618a DDR1. As to conditions: at 10 µM.
Assay [12] deals with Insulin-like growth factor 1 receptor (Homo sapiens, UniProt P08069). Kind of assay: Selectivity interaction (KinomeScan (DiscoverX)) EUB0000092b IGF1R. The note with it: at 10 µM.
For assay [13], the target named is Dual specificity testis-specific protein kinase 1 (Homo sapiens) (UniProt Q15569). Kind of assay: Selectivity interaction (KinomeScan (DiscoverX)) EUB0000092b TESK1. As to conditions: at 10 µM.
Dual specificity testis-specific protein kinase 1 (Homo sapiens), sequence (Q15569 whole entry, looked up): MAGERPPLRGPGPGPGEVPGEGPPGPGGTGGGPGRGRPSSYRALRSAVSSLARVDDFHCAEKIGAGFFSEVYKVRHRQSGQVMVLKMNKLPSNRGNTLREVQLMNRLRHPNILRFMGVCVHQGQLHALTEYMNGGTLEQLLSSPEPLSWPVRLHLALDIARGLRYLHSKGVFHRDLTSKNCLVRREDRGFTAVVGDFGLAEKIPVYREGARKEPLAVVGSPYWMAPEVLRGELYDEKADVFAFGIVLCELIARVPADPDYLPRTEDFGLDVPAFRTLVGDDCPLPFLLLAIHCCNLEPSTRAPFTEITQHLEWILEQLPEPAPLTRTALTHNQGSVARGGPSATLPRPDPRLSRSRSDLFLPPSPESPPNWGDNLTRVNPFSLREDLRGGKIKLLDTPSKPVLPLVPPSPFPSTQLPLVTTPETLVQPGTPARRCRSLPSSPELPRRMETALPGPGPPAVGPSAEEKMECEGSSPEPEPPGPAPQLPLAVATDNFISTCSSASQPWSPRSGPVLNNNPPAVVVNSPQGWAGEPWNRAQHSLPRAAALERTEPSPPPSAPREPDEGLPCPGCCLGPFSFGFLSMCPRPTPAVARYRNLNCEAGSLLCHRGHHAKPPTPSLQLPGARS

Dual specificity tyrosine-phosphorylation-regulated kinase 1B, sequence (Q9Y463 whole entry, looked up, the tested form may be a part): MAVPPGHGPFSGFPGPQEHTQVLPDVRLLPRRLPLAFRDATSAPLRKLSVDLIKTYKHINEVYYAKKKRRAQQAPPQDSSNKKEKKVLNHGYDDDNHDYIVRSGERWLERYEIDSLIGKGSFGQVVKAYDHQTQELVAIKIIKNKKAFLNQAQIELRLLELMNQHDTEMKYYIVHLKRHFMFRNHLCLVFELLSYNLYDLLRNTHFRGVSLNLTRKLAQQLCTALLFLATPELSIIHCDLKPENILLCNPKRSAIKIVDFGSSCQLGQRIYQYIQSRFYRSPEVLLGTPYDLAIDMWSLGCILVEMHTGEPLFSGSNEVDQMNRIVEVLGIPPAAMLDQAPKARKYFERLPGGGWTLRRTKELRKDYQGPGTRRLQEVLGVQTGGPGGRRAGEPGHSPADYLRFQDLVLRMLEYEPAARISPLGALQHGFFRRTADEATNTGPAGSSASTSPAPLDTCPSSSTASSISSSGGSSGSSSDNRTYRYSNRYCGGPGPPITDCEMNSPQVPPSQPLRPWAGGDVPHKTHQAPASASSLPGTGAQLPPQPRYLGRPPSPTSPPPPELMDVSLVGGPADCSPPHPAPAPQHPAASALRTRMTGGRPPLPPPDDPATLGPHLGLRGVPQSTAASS
Tyrosine-protein kinase BTK, sequence (Q06187 whole entry): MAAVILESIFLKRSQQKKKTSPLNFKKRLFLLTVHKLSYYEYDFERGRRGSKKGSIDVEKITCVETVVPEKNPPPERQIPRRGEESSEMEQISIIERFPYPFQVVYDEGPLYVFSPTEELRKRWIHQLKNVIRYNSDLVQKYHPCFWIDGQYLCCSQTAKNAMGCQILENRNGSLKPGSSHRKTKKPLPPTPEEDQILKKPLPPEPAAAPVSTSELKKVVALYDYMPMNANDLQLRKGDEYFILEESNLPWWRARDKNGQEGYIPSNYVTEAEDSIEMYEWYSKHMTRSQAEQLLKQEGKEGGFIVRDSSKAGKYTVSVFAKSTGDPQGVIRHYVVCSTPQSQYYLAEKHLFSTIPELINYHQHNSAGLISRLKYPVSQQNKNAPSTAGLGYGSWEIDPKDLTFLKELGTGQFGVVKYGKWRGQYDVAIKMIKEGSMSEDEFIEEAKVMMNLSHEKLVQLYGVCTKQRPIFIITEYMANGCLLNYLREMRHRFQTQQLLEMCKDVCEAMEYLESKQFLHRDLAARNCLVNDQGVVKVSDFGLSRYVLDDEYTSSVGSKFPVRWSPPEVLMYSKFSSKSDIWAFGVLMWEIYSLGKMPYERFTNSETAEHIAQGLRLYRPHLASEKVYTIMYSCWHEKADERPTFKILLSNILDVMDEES
Serine/threonine-protein kinase WNK3 (Homo sapiens), sequence (Q9BYP7 whole entry): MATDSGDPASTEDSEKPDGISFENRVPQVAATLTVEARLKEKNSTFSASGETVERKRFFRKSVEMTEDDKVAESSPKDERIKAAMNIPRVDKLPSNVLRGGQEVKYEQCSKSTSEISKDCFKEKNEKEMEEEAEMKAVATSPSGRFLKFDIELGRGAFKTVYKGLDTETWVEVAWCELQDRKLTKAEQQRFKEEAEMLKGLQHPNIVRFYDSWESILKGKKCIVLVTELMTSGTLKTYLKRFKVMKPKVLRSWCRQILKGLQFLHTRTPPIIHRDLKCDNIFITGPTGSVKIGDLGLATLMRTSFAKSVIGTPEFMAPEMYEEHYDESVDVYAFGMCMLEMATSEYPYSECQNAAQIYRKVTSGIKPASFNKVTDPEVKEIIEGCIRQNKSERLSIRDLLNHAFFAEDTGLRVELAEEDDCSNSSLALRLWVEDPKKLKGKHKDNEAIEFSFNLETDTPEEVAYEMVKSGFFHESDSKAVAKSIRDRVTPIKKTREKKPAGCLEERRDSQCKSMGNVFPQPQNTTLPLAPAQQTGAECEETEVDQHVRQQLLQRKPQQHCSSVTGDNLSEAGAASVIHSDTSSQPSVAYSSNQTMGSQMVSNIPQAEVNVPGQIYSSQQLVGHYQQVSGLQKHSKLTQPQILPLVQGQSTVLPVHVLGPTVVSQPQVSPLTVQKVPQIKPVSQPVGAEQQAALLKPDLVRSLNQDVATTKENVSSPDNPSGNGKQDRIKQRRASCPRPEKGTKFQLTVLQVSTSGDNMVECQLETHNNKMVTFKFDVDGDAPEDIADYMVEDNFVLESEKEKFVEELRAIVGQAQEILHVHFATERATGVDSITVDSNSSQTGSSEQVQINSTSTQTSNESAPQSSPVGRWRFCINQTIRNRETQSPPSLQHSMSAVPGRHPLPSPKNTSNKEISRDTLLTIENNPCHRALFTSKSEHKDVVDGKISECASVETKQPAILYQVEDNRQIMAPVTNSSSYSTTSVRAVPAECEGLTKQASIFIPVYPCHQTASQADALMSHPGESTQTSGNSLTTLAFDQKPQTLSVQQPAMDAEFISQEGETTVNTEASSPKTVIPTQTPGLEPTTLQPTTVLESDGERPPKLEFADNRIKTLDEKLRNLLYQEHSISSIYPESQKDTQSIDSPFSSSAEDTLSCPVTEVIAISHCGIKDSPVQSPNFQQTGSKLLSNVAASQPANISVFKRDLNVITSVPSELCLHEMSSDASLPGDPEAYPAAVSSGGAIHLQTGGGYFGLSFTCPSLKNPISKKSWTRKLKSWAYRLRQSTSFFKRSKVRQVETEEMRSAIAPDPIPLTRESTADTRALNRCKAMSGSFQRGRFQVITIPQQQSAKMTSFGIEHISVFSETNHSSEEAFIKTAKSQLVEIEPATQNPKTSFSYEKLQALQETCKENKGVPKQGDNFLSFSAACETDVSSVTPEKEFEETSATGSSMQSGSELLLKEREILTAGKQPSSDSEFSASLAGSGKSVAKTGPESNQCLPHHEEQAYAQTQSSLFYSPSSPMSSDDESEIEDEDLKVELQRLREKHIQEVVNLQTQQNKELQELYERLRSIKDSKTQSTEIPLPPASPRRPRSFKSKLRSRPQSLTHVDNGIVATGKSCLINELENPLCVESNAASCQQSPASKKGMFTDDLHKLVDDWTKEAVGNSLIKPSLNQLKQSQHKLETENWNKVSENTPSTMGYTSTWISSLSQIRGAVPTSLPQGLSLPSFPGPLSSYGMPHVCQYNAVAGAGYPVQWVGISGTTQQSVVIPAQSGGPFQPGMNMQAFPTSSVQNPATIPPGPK
5'-AMP-activated protein kinase catalytic subunit alpha-2 (Homo sapiens), sequence (P54646 whole entry, looked up): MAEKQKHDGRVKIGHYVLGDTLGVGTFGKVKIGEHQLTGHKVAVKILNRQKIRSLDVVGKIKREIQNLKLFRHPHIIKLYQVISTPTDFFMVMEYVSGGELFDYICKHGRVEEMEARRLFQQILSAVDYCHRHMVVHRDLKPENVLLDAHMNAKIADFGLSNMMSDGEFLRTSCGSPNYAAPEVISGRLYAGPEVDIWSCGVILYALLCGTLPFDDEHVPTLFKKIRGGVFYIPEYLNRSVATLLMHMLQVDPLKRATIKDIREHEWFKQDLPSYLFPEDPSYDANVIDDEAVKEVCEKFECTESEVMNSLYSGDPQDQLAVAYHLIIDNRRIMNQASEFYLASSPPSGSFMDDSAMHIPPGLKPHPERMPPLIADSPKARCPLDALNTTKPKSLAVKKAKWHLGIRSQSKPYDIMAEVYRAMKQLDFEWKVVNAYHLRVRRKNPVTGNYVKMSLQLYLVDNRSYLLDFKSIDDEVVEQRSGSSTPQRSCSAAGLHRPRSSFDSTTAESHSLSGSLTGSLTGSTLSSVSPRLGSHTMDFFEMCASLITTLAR
Ribosomal protein S6 kinase alpha-3, sequence (P51812 whole entry): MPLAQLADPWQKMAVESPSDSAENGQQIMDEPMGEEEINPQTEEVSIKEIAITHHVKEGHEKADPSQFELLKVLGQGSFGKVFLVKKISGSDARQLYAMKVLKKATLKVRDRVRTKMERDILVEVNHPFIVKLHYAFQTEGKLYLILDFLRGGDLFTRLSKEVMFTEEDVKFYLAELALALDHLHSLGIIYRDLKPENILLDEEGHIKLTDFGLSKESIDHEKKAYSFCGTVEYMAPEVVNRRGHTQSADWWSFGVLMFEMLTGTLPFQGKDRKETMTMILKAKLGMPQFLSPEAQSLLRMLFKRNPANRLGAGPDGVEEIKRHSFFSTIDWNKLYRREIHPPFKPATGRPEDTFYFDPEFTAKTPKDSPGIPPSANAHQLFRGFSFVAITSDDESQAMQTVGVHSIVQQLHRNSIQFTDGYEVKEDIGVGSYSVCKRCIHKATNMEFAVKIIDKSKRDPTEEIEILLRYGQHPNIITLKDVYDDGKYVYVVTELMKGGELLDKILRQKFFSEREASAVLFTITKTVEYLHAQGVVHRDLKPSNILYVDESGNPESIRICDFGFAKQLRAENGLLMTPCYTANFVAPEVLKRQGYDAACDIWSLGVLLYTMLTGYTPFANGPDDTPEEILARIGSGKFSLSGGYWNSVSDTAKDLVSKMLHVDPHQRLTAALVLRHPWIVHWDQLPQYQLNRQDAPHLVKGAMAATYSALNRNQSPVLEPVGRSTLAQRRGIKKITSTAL

As for `Cn1cc(-n2cnc3c(NCc4nc5cc(Cl)c(Cl)cc5[nH]4)nc(N4CCOCC4)nc32)cn1`, the % of control in [1] turned out to be 4.92%.
In the case of `N#Cc1cccc(-c2c[nH]c3ncnc(N4CCOCC4)c23)c1`, the % of control in assay [2] turned out to be 22%. In [3], the % of inhibition is -6%.
In turn, `O=C(NOC[C@H](O)CO)c1ccc(F)c(F)c1Nc1ccc(I)cc1F` gave a % of control in assay [4] of 100%.
As to `CNC(=O)Nc1ccc(-c2nc(N3CC4CCC(C3)O4)c3cnn(C4CCC5(CC4)OCCO5)c3n2)cc1`, in assay [5], the % of control was 90%.
`Cc1cc([C@@H](C)Nc2ccccc2C(=O)O)c2nc(N3CCOCC3)cc(=O)n2c1` [AZD-6482]: the % of control in assay [6] stood at 91%.
As for `CC[C@@H]1[C@H](F)C(=O)N[C@@H]1COc1nccc2cc(C(N)=O)c(OC)cc12` [ZIMLOVISERTIB], the % of inhibition was -7.9% in assay [7], 2.34% in [8] and 16% in assay [9].
On to `C=CC(=O)Nc1cc(-n2c(=O)ccc3cnc4ccc(-c5ccc(NS(C)(=O)=O)cc5)cc4c32)ccc1C`, for which the % of control in [10] (at 1 µM) was 100%; in [10] (at 10 µM), 81%.
In [11], `O[C@H]1CC[C@H](Nc2ncc3nc(Nc4c(F)cc(F)cc4F)n([C@H]4CCOC4)c3n2)CC1` showed a % of control of 27%.
For `CCC(=O)N1CCN(c2ccc(-n3c(=O)ccc4cnc5ccc(-c6cnc7ccccc7c6)cc5c43)cc2C(F)(F)F)CC1`, the % of control stood at 94% in assay [12] and 58% in [13].

These data come from ChEMBL document CHEMBL5465560, “Selectivity Literature for EUbOPEN Chemogenomic Library” (2024).
